The nature of data set [1]: Oral bioavailability in rat 1 mg/kg. To be noted: in vivo. Format: ADME, organism-based.
Data set [2] is described as follows: Volume of distribution at steady state in rat at 0.5 mg/kg, iv and 1 mg/kg, po. It counts as ADME, organism-based. Particulars: in vivo, read-out: Vdss.
Data set [3] in a line: Half life in rat at 0.5 mg/kg, iv and 1 mg/kg, po. It counts as ADME, organism-based. To be noted: in vivo.
In data set [4] the test system is Liver microsomes. The data set is described as follows: Intrinsic clearance in human liver microsomes. Format: ADME, Microsome.
A short description of data set [5]: Clearance in rat blood at 0.5 mg/kg, iv and 1 mg/kg, po. It counts as ADME, organism-based. To be noted: whole blood.
The nature of data set [6]: Ratio of drug level in rat brain to plasma at 0.5 mg/kg, iv and 1 mg/kg, po. Format: ADME, organism-based.

From ChEMBL document CHEMBL1153978, “8-[2-(4-Aryl-1-piperazinyl)ethyl]-2H-1,4-benzoxazin-3(4H)-ones: dual-acting 5-HT1 receptor antagonists and serotonin reuptake inhibitors--part II” (Bioorg Med Chem Lett, 2009) come the findings set out here.

In data set [1], `Cc1ccc2c(N3CCN(CCc4cccc5c4OCC(=O)N5C)CC3)cccc2n1` displayed a bioavailability of 26%. Also, the Vd in data set [2] amounted to 1.7 L/kg. The molecule also had a half-life in data set [3] of 1 h. The molecule further registered a CL in data set [4] of 2.4 mL/min/g. This molecule also registered a clearance in data set [5] of 29 mL/min/kg.

The molecule `Cc1ccc2c(N3CCN(CCc4cccc5c4OCC(=O)N5)CC3)cccc2n1` gave a bioavailability in data set [1] of 63%. Also, in data set [2], the Vd was 3.4 L/kg. This molecule had a half-life in data set [3] of 5.2 h. Moreover, the CL in data set [4] is 1 mL/min/g. This molecule also displayed a clearance in data set [5] of 8 mL/min/kg.

For the molecule `Cc1ccc2c(N3CCN(CCc4cccc5c4OCC(=O)N5C)CC3)cc(F)cc2n1`, in data set [6], the Kp came out at 1.1. In data set [1], this molecule gave a bioavailability of 41%. Besides, the Vd in data set [2] turned out to be 2.1 L/kg. Besides, the half-life in data set [3] is 1.4 h. In data set [4], this molecule gave a CL of 3.2 mL/min/g. In addition, the clearance in data set [5] is 21 mL/min/kg.

Consider `Cc1ccc2c(N3CCN(CCc4ccc5c(c4)NC(=O)CO5)CC3)cccc2n1`, for which the Vd in data set [2] amounted to 2 L/kg. Moreover, the CL in data set [4] was < 0.5 mL/min/g.

In the case of `Cc1ccc2c(N3CCN(CCCc4cccc5c4OCC(=O)N5C)CC3)cccc2n1`, the Kp in data set [6] stood at 2.9. For the same molecule, the Vd in data set [2] is 5.2 L/kg. The molecule also showed a half-life in data set [3] of 1.5 h. The CL in data set [4] was 2.1 mL/min/g. The molecule further gave a clearance in data set [5] of 55 mL/min/kg.

Regarding `Cc1ccc2c(N3CCN(CCc4cccc5c4OCC(=O)N5C)[C@@H](C)C3)cccc2n1`, the Kp in data set [6] worked out at 1.9. The bioavailability in data set [1] turned out to be 31%. Moreover, the Vd in data set [2] was 1.9 L/kg. Also, the half-life in data set [3] is 0.8 h. In data set [4], the CL was determined as 3.5 mL/min/g. Moreover, the clearance in data set [5] was 44 mL/min/kg.

With `Cc1ccc2c(N3CCN(CCc4ccc5c(c4)N(C)C(=O)CO5)CC3)cccc2n1`, the Vd in data set [2] turned out to be 2.7 L/kg. Moreover, the CL in data set [4] came out at 1.1 mL/min/g.
